Literature values as cited in US20230277473A1 (priority 2023, published 2023).

What was measured:
[1] = in vivo

half-life [1] [h] | SMILES | solubility in water
21 | Cc1nc2n(c(=O)c1CCN1CCC(c3noc4cc(F)ccc34)CC1)CCCC2O (centres unmarked) [9-hydroxyrisperidone] | –
– | Cc1nc2n(c(=O)c1CCN1CCC(c3noc4cc(F)ccc34)CC1)CCCC2 [RPD, risperidone] | almost insoluble in water
